Measured values as given in patent US12553037B2, “Engineered class 2, type V repressor systems” (Scribe Therapeutics Inc., priority 2021, dated 2026).

System: B2M gene
Experiment: B2M reactivation by 5-azadC in cells silenced by ELXR5-ZIM3 or CasX 491 (Example 12)
Conditions: 0 μM to 20 μM 5-azadC; B2M-targeting gRNA

## Nc1ncn([C@H]2C[C@H](O)[C@@H](CO)O2)c(=O)n1 [5-azadC, 5-aza-2′-deoxycytidine, reference compound]
  reactivation of the B2M gene upon 5-azadC treatment: reactivation of the B2M gene
